Test results: patent US20260060250A1, “HERBICIDAL PYRIDONE DERIVATIVES” (SYNGENTA CROP PROTECTION AG, priority 2022, published 2026)

Tests used:
Type in all cases: in vivo
Conditions in all cases: evaluated after 13 days
Zea mays (ZEAMX) [1] = test: Pre-emergence Test (Table B1); parameters: key: 5=81-100%; 4=61-80%; 3=41-60%; 2=21-40%; 1=0-20%; 0=inactive
[2] = system: Amaranthus palmeri (AMAPA); test: Pre-emergence Test (Table B1)
[3] = system: Amaranthus retroflexus (AMARE); test: Pre-emergence Test (Table B1)
[4] = system: Amaranthus retroflexus (AMARE); test: Post-emergence Test (Table B2)
In short: (§1)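 Test compound, formulated in acetone/water (50:50) containing 0.5% Tween 20, is sprayed at 1000 g/ha (unless otherwise stated) onto seed-sown pots. Plants are kept at 24 °C/16 °C, 14 h light, 65% humidity, watered twice daily, and assessed for % damage after 13 days.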

[5] = system: Amaranthus palmeri (AMAPA); test: Post-emergence Test (Table B2)
In short: as §1

Setaria faberi (SETFA) [6] = test: Post-emergence Test (Table B2)
In short: as §1

[7] = system: Echinochloa crus-galli (ECHCG); test: Pre-emergence Test (Table B1); parameters: key: 5=81-100%; 4=61-80%; 3=41-60%; 2=21-40%; 1=0-20%; 0=inactive
[8] = system: Ipomoea hederacea (IPOHE); test: Pre-emergence Test (Table B1); parameters: key: 5=81-100%; 4=61-80%; 3=41-60%; 2=21-40%; 1=0-20%; 0=inactive
Setaria faberi (SETFA) [9] = test: Pre-emergence Test (Table B1); parameters: key: 5=81-100%; 4=61-80%; 3=41-60%; 2=21-40%; 1=0-20%; 0=inactive
Zea mays (ZEAMX) [10] = test: Post-emergence Test (Table B2)
In short: as §1

[11] = system: Ipomoea hederacea (IPOHE); test: Post-emergence Test (Table B2)
In short: as §1

[12] = system: Echinochloa crus-galli (ECHCG); test: Post-emergence Test (Table B2)
In short: as §1

[13] = lower rate of 250 g per hectare

SMILES | percentage damage caused to the plant, ZEAMX (Zea mays (ZEAMX) [1]; 1000 g/ha) | percentage damage caused to the plant, AMAPA ([2]; 1000 g/ha) | percentage damage caused to the plant, AMARE ([3]; 1000 g/ha) | percentage damage caused to the plant, AMARE ([4]; 1000 g/ha) | percentage damage caused to the plant, AMAPA ([5]; 1000 g/ha) | percentage damage caused to the plant, SETFA (Setaria faberi (SETFA) [6]; 1000 g/ha) | percentage damage caused to the plant, ECHCG ([7]; 1000 g/ha) | percentage damage caused to the plant, IPOHE ([8]; 1000 g/ha) | percentage damage caused to the plant, SETFA (Setaria faberi (SETFA) [9]; 1000 g/ha) | percentage damage caused to the plant, ZEAMX (Zea mays (ZEAMX) [10]; 1000 g/ha) | percentage damage caused to the plant, IPOHE ([11]; 1000 g/ha) | percentage damage caused to the plant, ECHCG ([12]; 1000 g/ha) | also measured
CCn1c(C)c(-c2cc(C(=O)OC3CCCC3)c(Cl)cc2F)c(=O)c(C(=O)O)c1-c1ccc(Cl)c(Cl)c1 [Compound 24, 5-[4-chloro-5-(cyclopentoxycarbonyl)-2-fluoro-phenyl]-2-(3,4-dichlorophenyl)-1-ethyl-6-methyl-4-oxo-pyridine-3-carboxylic acid] | 0 | 5 (5=81-100%) | 5 (5=81-100%) | 5 (5=81-100%) | 5 (5=81-100%) | 5 (5=81-100%) | 1 (1=0-20%) | 3 (3=41-60%) | 1 (1=0-20%) | 3 (3=41-60%) | 4 (4=61-80%) | 5 (5=81-100%) | –
CCn1c(C)c(-c2cc(C(=O)OC3CC3)c(Cl)cc2F)c(=O)c(C(=O)O)c1-c1ccc(C#N)c(Cl)c1 [Compound 46, 2-(3-chloro-4-cyano-phenyl)-5-[4-chloro-5-(cyclopropoxycarbonyl)-2-fluoro-phenyl]-1-ethyl-6-methyl-4-oxo-pyridine-3-carboxylic acid] | – | – | – | – | – | – | – | – | – | – | – | – | percentage damage caused to the plant, ZEAMX (Zea mays (ZEAMX) [1]; [13]): 0; percentage damage caused to the plant, AMAPA [2, 13]: 5 (5=81-100%); percentage damage caused to the plant, AMARE [3, 13]: 5 (5=81-100%); percentage damage caused to the plant, AMARE [4, 13]: 5 (5=81-100%); percentage damage caused to the plant, AMAPA [5, 13]: 5 (5=81-100%); percentage damage caused to the plant, SETFA (Setaria faberi (SETFA) [6]; [13]): 5 (5=81-100%); percentage damage caused to the plant, ECHCG [7, 13]: 0; percentage damage caused to the plant, IPOHE [8, 13]: 2 (2=21-40%); percentage damage caused to the plant, SETFA (Setaria faberi (SETFA) [9]; [13]): 1 (1=0-20%); percentage damage caused to the plant, ZEAMX (Zea mays (ZEAMX) [10]; [13]): 5 (5=81-100%); percentage damage caused to the plant, IPOHE [11, 13]: 4 (4=61-80%); percentage damage caused to the plant, ECHCG [12, 13]: 5 (5=81-100%)
CCn1c(C)c(-c2cc(C(=O)OC(C)COC)c(Cl)cc2F)c(=O)c(C(=O)O)c1-c1ccc(Cl)c(Cl)c1 (stereo not drawn) [Compound 26, 5-[4-chloro-2-fluoro-5-(2-methoxy-1-methyl-ethoxy)carbonyl-phenyl]-2-(3,4-dichlorophenyl)-1-ethyl-6-methyl-4-oxo-pyridine-3-carboxylic acid] | 0 | 5 (5=81-100%) | 5 (5=81-100%) | 5 (5=81-100%) | 5 (5=81-100%) | 5 (5=81-100%) | 4 (4=61-80%) | 3 (3=41-60%) | 4 (4=61-80%) | 5 (5=81-100%) | 5 (5=81-100%) | 5 (5=81-100%) | –
CCn1c(C)c(-c2cc(C(=O)OC3CCC3)c(Cl)cc2F)c(=O)c(C(=O)O)c1-c1ccc(Cl)c(Cl)c1 [Compound 23, 5-[4-chloro-5-(cyclobutoxycarbonyl)-2-fluoro-phenyl]-2-(3,4-dichlorophenyl)-1-ethyl-6-methyl-4-oxo-pyridine-3-carboxylic acid] | 2 (2=21-40%) | 5 (5=81-100%) | 5 (5=81-100%) | 5 (5=81-100%) | 5 (5=81-100%) | 5 (5=81-100%) | 5 (5=81-100%) | 4 (4=61-80%) | 5 (5=81-100%) | 2 (2=21-40%) | 2 (2=21-40%) | 4 (4=61-80%) | –
CCC#CC(C)OC(=O)c1ccc(F)c(-c2c(C)n(CC)c(-c3ccc(Cl)c(Cl)c3)c(C(=O)O)c2=O)c1 (stereo not drawn) [Compound 11, 2-(3,4-dichlorophenyl)-1-ethyl-5-[2-fluoro-5-(1-methylpent-2-ynoxycarbonyl)phenyl]-6-methyl-4-oxo-pyridine-3-carboxylic acid] | 0 | 5 (5=81-100%) | 5 (5=81-100%) | 5 (5=81-100%) | 5 (5=81-100%) | 4 (4=61-80%) | 0 | 0 | 0 | 2 (2=21-40%) | 3 (3=41-60%) | 4 (4=61-80%) | –
CC#CC(C)OC(=O)c1ccc(F)c(-c2c(C)n(CC)c(-c3ccc(Cl)c(Cl)c3)c(C(=O)O)c2=O)c1 (stereo not drawn) [Compound 15, 2-(3,4-dichlorophenyl)-1-ethyl-5-[2-fluoro-5-(1-methylbut-2-ynoxycarbonyl)phenyl]-6-methyl-4-oxo-pyridine-3-carboxylic acid] | 0 | 5 (5=81-100%) | 5 (5=81-100%) | 5 (5=81-100%) | 5 (5=81-100%) | 5 (5=81-100%) | 0 | 0 | 0 | 4 (4=61-80%) | 2 (2=21-40%) | 5 (5=81-100%) | –
